According to patent publication US12673052B2, “Combinations for the treatment of cancer” (Exelixis, Inc., priority 2020, dated 2026):

Tests used:
[1] = Hepatocyte stability assay; assay type: in vitro ADME, human; details: hepatocytes
Procedure: The mean plasma t1/2, z values were approximately 9 hours in rats and 4 hours in dogs. Interspecies scaling based on body weight to predict PK parameters in humans could not be performed because dogs (larger species) cleared Compound 1 faster than rats (smaller species). Therefore, the human PK was projected based on one species (rat). […] This apparent clearance value (CL/F) was used to predict steady-state exposure (AUC and average plasma concentration [Cavg]) in humans for the proposed first-in-human (FIH) starting dose for Study Compound 1-001.
(§1) In the liver microsomal stability assay, CLint was 0.601 mL/min/g liver in mouse, 0.563 mL/min/g liver in rat, 0.315 mL/min/g liver in dog, 0.734 mL/min/g liver in monkey, and 0.639 mL/min/g liver in human. In the hepatocyte stability assay, Compound 1 CLint was 0.373 mL/min/g liver in mouse, 0.285 mL/min/g liver in rat, 1.08 mL/min/g liver in dog, 0.533 mL/min/g liver in monkey, and 0.317 mL/min/g liver in human.

mammalian cell = test: In vitro mammalian cell genotoxicity bioassay; assay type: cell-based
Procedure: (§2) The nonclinical toxicity of Compound 1 was characterized in dose range-finding 7-day and definitive 28-day repeat-dose studies in rats and dogs, and in in vitro bacterial and mammalian genotoxicity bioassays. Compound 1 was also evaluated in definitive neurobehavioral, respiratory and cardiovascular safety pharmacology studies.
(§3) Compound 1 was negative in in vitro bacterial and mammalian cell genotoxicity bioassays.

[2] = Hepatocyte stability assay; assay type: in vitro ADME, mouse; details: hepatocytes
Procedure: as §1

[3] = GLP safety pharmacology: neurobehavioral and respiratory; assay type: in vivo, rats; details: single oral doses as high as 60 mg/kg; within 24 hours postdose
Procedure: as §2

bacterial = test: In vitro bacterial genotoxicity bioassay; assay type: cell-based
Procedure: as §2, §3

CYP2C19 = test: CYP/UGT substrate specificity (recombinant Supersomes, chemical inhibitors in human liver microsomes); assay type: in vitro ADME
Procedure: (§4) Plasma PK of Compound 1 was characterized in rats and beagle dogs. Toxicokinetic (TK) evaluations of oral Compound 1 were evaluated in repeat-dose studies in rats and dogs. Plasma protein binding was determined in mouse, rat, dog, monkey, and human plasma in vitro. Biotransformation and metabolite profiling of Compound 1 were investigated in vitro using mouse, rat, dog, monkey, and human liver microsomal fractions and hepatocytes and in vivo in rats and dogs. P-glycoprotein (P-gp) and breast cancer resistance protein (BCRP) transporter interaction studies, in vitro experiments evaluating cytochrome P450 (CYP) induction and inhibition by Compound 1, and CYP and glucuronosyltransferase (UGT) substrate specificity studies of Compound 1 were also performed.

CYP2C8 = test: as above; assay type: in vitro ADME
Procedure: as §4

CYP3A4 = test: as above; assay type: in vitro ADME
Procedure: as §4

CYP1A2 = test: as above; assay type: in vitro ADME
Procedure: as §4

UGT2B7 = molecular target: T1, UGT2B7 (Homo sapiens, UniProt P16662); test: as above; assay type: in vitro ADME
T1 construct: purchased; host or cells: recombinant Supersomes; human liver microsomes
Procedure: as §4

T1 sequence (P16662 24-529): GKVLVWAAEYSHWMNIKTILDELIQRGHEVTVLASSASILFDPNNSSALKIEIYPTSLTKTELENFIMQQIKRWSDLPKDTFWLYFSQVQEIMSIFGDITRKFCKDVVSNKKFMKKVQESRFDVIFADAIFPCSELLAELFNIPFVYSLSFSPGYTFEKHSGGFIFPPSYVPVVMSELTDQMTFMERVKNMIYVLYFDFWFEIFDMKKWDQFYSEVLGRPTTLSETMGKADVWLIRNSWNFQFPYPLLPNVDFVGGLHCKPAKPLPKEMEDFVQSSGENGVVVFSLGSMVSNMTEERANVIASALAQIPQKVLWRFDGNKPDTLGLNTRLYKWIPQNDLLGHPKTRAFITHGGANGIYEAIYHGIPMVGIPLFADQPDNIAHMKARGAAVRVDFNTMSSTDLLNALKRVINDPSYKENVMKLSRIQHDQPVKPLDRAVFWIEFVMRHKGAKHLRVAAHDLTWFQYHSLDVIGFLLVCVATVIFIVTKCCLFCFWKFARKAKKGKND

**Q.** With `CNC(=O)c1cc2c(Oc3ccc(NC(=O)C4(C(=O)Nc5ccc(F)cc5)CC4)cc3)ccnc2cc1OC` [Compound 1, 1-N′-(4-Fluorophenvl)-1-N-[4-[7-methoxy-6-(methylcarbamovl)quinolin-4-yl]oxyphenyl]cyclopropane-1,1-dicarboxamide] as the compound, how does the CLint [1] read?
**A.** 0.317 mL/min/g liver

**Q.** And the genotoxicity (mammalian cell)?
**A.** negative

**Q.** What about the CLint [2] of the same compound?
**A.** 0.373 mL/min/g liver

**Q.** What about the “neurobehavioral and respiratory system effects” value [3] of the same compound?
**A.** no adverse neurobehavioral effects or toxicologically significant respiratory system effects

**Q.** And the genotoxicity (bacterial)?
**A.** negative

**Q.** What about the substrate of enzyme (CYP2C19) of the same compound?
**A.** not to be a substrate

**Q.** And the “role in the metabolism of Compound 1” value (CYP2C8)?
**A.** only a minor role

**Q.** And the substrate of enzyme (CYP3A4)?
**A.** sensitive substrate

**Q.** What about the substrate of enzyme (CYP1A2) of the same compound?
**A.** not to be a substrate

**Q.** What about the substrate of enzyme (UGT2B7) of the same compound?
**A.** not to be a substrate
